What all share (type): in vivo, SD (Sprague Dawley) rats
For data set [1], the system named is SRC-1 (steroid receptor coactivator-1). Put plainly: immunohistochemical measurement of SRC-1 in the prostate. The settings on record: finasteride group, 0.28 mg/kg. Here is the method:
S3023: according to a dose of 4 mg/kg, which is calculated through equivalent conversion according to the body surface areas of humans and animals, hypodermically injecting the testosterone propionate injection to each SD rat for consecutive 30 days, and injecting normal saline of same volume to the SD rats of normal group, so as to finish modeling.
The high-dose group adopts an administration dose of 10 mg/kg (which is calculated through equivalent conversion according to the body surface areas of humans and animals; when the weight of the SD rat is 1 kg, 10 mg of the sterol composition in the pumpkin seed oil prepared through the example 1 is administrated), the medium-dose group adopts an administration dose of 3.3 mg/kg, and the low-dose group adopts an administration dose of 1.1 mg/kg, which respectively correspond to 20 times, 6.66 times, and 2.22 times the clinical dose. Before drug administration, suspensions of 4.5 mg/mL, 1.5 mg/mL, and 0.5 mg/mL are respectively prepared with the corn oil. […] The drug is administrated by gavage once a day; after administrating for consecutive 6 days, administration is stopped for one day; and an administration cycle is 4 week. […]

Data set [2] has as its system prostate tissue of benign prostatic hyperplasia rats. The experiment in a line: prostate tissue appearance and HE stain morphology in benign prostatic hyperplasia rats. Conditions: finasteride group, 0.28 mg/kg. The source says:
The drug is administrated by gavage once a day; after administrating for consecutive 6 days, administration is stopped for one day; and an administration cycle is 4 week. killing the SD rats, separating the prostate of the SD rats through the tweezers, and weighing the prostate; […]

The subject of a further data set is 5α-reductase. The experiment in a line: RT-qPCR genetic expression of 5α-reductase in the prostate. Conditions: finasteride group, 0.28 mg/kg, compared with the model group.
Data set [3] concerns benign prostatic hyperplasia rats treated with testosterone propionate. The experiment in a line: prostate weight and prostate index in benign prostatic hyperplasia rats treated with testosterone propionate. The settings on record: finasteride group. Here is the method:
: modeling, particularly comprising steps of: […]: respectively weighing six groups of SD rats; […] The drug is administrated by gavage once a day; after administrating for consecutive 6 days, administration is stopped for one day; and an administration cycle is 4 week. Respectively weighing SD rats of six groups two hours after last administration and after fasting for 12 hours; killing the SD rats, separating the prostate of the SD rats through the tweezers, and weighing the prostate;

Data set [4] can be described thus: rat weight after 4 week administration in benign prostatic hyperplasia rats. The settings on record: finasteride group, 0.28 mg/kg by gavage once a day.

Each structure is given as a SMILES string.

Take `CC(C)(C)NC(=O)[C@H]1CC[C@H]2[C@@H]3CC[C@H]4NC(=O)C=C[C@]4(C)[C@H]3CC[C@]12C` [Finasteride, finasteride]: in data set [1], the “genetic expression of SRC-1, immunohistochemical method (FIG. 4)” value is “obviously decreased”. In data set [2], the “HE stain morphology of the prostate tissue (FIG. 3)” value was “part of the multiple-layer epithelial cells in the prostate tissue recover to the single-layer epithelial cells” and the “volume of the prostate tissue compared with the model group (FIG. 2)” value is reported as “obviously decreased”. Further, the “genetic expression quantity of 5α-reductase, RT-qPCR (FIG. 5)” value in the data set on 5α-reductase was “obviously decreased”. Further, the “decrease of prostate weight compared with the model group” value in data set [3] (0.28 mg/kg) turned out to be 19.1%. For the same molecule, in data set [3] (0.28 mg/kg by gavage once a day, 4 week), the Prostate weight was 868.4 ± 188.3 mg. In addition, the Rat weight in data set [4] is listed as 439.2 ± 32.7 g.

Values taken from patent US11065263B2, “Sterol composition in pumpkin seed oil and application thereof, and drug for treating benign prostatic hyperplasia” (Hunan Zhongkewentai Bio-tech co.Ltd, priority 2019, dated 2021).
